Results on one compound are retold here after patent publication US20150211028A1, “Production of 1,3-Propanediol in Cyanobacteria” (Algenol Biofuels Inc., priority 2013, published 2015).

Data set [1] deals with Synechocystis sp. PCC 6803. The data set can be described thus: Tolerance testing: growth (OD750) after a one time bolus of 1,3-propanediol. The format is cell-based. Conditions: OD750 monitored for one week. From the text: (§1) The tolerance of cyanobacterial strains Synechocystis sp. PCC 6803 and Synechococcus sp. PCC 7002 to the presence of accumulated 1,3-propanediol in the culture medium was examined by adding a one time bolus of varying amounts of 1,3-propanediol (ranging from 0.05% to 5%) to exponential phase cultures and comparing the growth of these cultures to a wild type culture with no addition. Growth was monitored by optical density (OD750) for one week. There was no effect on the growth of Synechocystis sp. PCC 6803 in the presence of up to 1% 1,3-propanediol compared to the control (no addition of 1,3-propanediol). […] At 5% 1,3-propanediol, Synechocystis sp. […] There was no effect on the growth of Synechococcus sp. PCC 7002 with up to 1% 1,3-propanediol addition.

For data set [2], the system named is Synechococcus sp. PCC 7002. The description is as above. The class given is cell-based. The conditions noted are these: OD750 monitored for one week.
Text: as §1

On to `OCCCO` [1,3-propanediol], for which the “effect on growth compared to the control” value in data set [1] (2% and 3% 1,3-propanediol in culture medium) was “inhibition effect resulting in a yellowing discoloration of the culture, slower growth and clumping”; in data set [1] (up to 1% 1,3-propanediol in culture medium, exponential phase culture), “no effect”; in data set [2] (up to 1% 1,3-propanediol addition, exponential phase culture), “no effect”. For the same compound, the “survival of the culture” value in data set [1] (5% 1,3-propanediol in culture medium) was “could not survive and bleached out after 3 days”; in data set [2] (2% 1,3-propanediol addition), “lethal resulting in a completely bleached culture”.
